This note sets out measurements from ChEMBL document CHEMBL1132796, “Multistep solution-phase parallel synthesis of spiperone analogues” (Bioorg Med Chem Lett, 2000).

Test [1] addresses T1, 5-hydroxytryptamine receptor 2A (Homo sapiens, UniProt P28223). In words: Compound was evaluated for its inverse agonist activity against 5-hydroxytryptamine 2A receptor. The format is functional.
Test [2] deals with T1, 5-hydroxytryptamine receptor 2A. Put plainly: Compound was evaluated for its binding against 5-hydroxytryptamine 2A receptor.

T1 sequence (P28223 whole entry): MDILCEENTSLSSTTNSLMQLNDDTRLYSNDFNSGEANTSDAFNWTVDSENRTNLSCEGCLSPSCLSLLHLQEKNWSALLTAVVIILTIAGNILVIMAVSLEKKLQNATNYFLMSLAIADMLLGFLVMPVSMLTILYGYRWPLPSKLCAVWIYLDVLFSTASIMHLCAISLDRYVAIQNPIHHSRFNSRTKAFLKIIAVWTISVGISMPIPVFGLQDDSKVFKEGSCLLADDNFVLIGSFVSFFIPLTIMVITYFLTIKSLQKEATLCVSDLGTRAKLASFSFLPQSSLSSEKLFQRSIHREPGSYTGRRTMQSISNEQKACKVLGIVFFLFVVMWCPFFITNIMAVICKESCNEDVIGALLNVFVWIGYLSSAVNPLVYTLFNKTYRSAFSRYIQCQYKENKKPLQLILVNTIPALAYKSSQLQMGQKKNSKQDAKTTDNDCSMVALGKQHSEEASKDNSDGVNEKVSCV

Consider `CC(C)NC(=O)N(C1CCCCCCC1)C1CCN(CCCOc2ccc(F)cc2)CC1`, for which, in test [1], the IC50 – broadly, the concentration that gives 50% inhibition – is 0.0794 µM.

As to `CCC(=O)N(C1CCCCCCC1)C1CCN(CCCOc2ccc(F)cc2)CC1`, the IC50 in test [1] is 0.0126 µM. The Ki (usually a measure of affinity in units of concentration, obtained from inhibition or displacement) in test [2] is 0.02 µM.
